In paper PMC8157280 (Pharmaceutics, 2021):
Counter-ions that a name gives are not always drawn.

Experiments:
[1] = system: Sprague-Dawley rats; assay: GHB-induced respiratory depression, whole-body plethysmography; details: for Breathing frequency (in words) / Minute volume (in words) / Tidal volume (in words): GHB 600 mg/kg i.v. alone or with ketamine 6 mg/kg + 1 mg/kg/min, treatments 5 min after GHB-ketamine, compared to GHB-ketamine; for Respiratory depression (in words): ketamine alone, or naloxone 2 mg/kg i.v. with or without SCH50911 10 mg/kg given 5 min after GHB-ketamine
[2] = system: Sprague-Dawley rats; assay: Fatality after GHB with or without ketamine; details: GHB 400 mg/kg i.v. bolus + 208 mg/kg/h infusion and/or ketamine 6 mg/kg bolus + 1 mg/kg/min infusion; n = 8
[3] = parameters: method as in PMID 12667908; details: GHB 400 mg/kg i.v. alone; cited from earlier work
[4] = GHB blood-brain partitioning at steady state; details: GHB 400 mg/kg i.v. bolus + 208 mg/kg/h infusion alone; steady state 4 h
[5] = system: RBE4 cells; assay: [3H]-GHB uptake in RBE4 cells; format: cell-based, rat; details: for GHB uptake compared with GHB alone / GHB uptake in the presence of staurosporine: 10 mM GHB; for GHB uptake in the presence of staurosporine: 2 h pre-incubation with ketamine 40 µM or PMA 100 nM plus staurosporine
Description: The immortalized rat brain capillary endothelial cell line (RBE4) was kindly provided by Professor P. Couraud (Institut Cochin, Paris, France). RBE4 cells (passages 39–44) were used in all studies, as described previously. Briefly, cells were grown at 37 °C with 5% CO2 on Type-I collagen-coated flasks, and media was changed every 2–3 days. The culture medium was 1:1 α-minimum essentials medium/Hams F10 nutrient mixture supplemented with L-glutamine (2.0 mM), geneticin (300 μg/mL), human recombinant fibroblast growth factor (1 ng/mL), gentamicin (50 μg/mL), and 10% v/v fetal bovine serum (FBS). Cells were passaged using 0.25% trypsin/EDTA and seeded on individual 35 × 10 mm collagen-coated wells for uptake studies which were performed 7 days post-confluence (the time needed for formation of tight junctions).
In addition, the effect of various pre-incubation times with ketamine (0.5, 2, 4, 8 and 24 h) was also studied in these cells. […] After cell lysis, NaOH was neutralized with 0.5 mL 1.0 N HCl.

[6] = cited from earlier work
[7] = system: Sprague-Dawley rats; assay: Sedative effect (sleep time, righting reflex); details: GHB 400 mg/kg i.v. + ketamine 6 or 20 mg/kg i.v.; compared to GHB or ketamine alone
[8] = GHB toxicokinetics (plasma and urine, noncompartmental analysis); details: for Ketamine plasma concentration in the study: ketamine 6 mg/kg i.v. bolus + 1 mg/kg/min infusion, maintained up to 1 h
[9] = GHB 600 mg/kg i.v. bolus, ketamine 6 mg/kg i.v. bolus + 1 mg/kg/min infusion, L-lactate 66 mg/kg + 302.5 mg/kg/h, AR-C155858 1 mg/kg, SCH50911 10 mg/kg or naloxone 2 mg/kg i.v. 5 min after GHB-ketamine

CC1(C)CO[C@@H](CC(=O)O)CN1 [SCH50911, (2S)-(+)-5,5-Dimethyl-2-morpholineacetic acid]
Breathing frequency (in words) [1]: significant improvement in breathing frequency and minute volume
Minute volume (in words) [1]: significant improvement in breathing frequency and minute volume
Tidal volume (in words) [1]: compensatory increase in tidal volume was also absent

O=C(O)CCCO [GHB, γ-hydroxybutyric acid]
Fatality [2]: No death was observed
Cbrain (brain GHB concentration at RRR) [3]: 71.7 ± 9.89 µg/g
Cplasma (plasma GHB concentration at RRR) [3]: 379 ± 86.2 µg/mL
Cbrain GHB [4]: 0.21 ± 0.03 mg/g
Breathing frequency (in words) [1]: decrease in breathing frequency
Minute volume (in words) [1]: remaining unchanged
Tidal volume (in words) [1]: compensatory increase in tidal volume
Frequency AUEC [1, 9]: 5540 ± 1000 breaths
Frequency Emax [1, 9]: 31 ± 5 breaths/min
Frequency Td [1, 9]: 153 ± 12.5 min

Cc1n[nH]c(C)c1Cc1sc2c(c1C(=O)N1C[C@H](O)CO1)c(=O)n(C)c(=O)n2CC(C)C [AR-C155858, 6-[(3,5-Dimethyl-1H-pyrazol-4-yl)methyl]-5-[[(4S)-4-hydroxy-2-isoxazolidinyl]carbonyl]-3-methyl-1-(2-methylpropyl)thieno [2,3-d]pyrimidine-2,4(1H,3H)-dione]
Breathing frequency (in words) [1]: significant and rapid improvement in breathing frequency
Minute volume (in words) [1]: completely reversed the decline in minute volume

C[C@H](O)C(=O)[O-].[Na+] [L-lactate, sodium L-lactate]
Breathing frequency (in words) [1]: significant improvement in breathing frequency and minute volume
Minute volume (in words) [1]: significant improvement in breathing frequency and minute volume
Tidal volume (in words) [1]: no change in tidal volume

C=CCN1CC[C@]23c4c5ccc(O)c4O[C@H]2C(=O)CC[C@@]3(O)[C@H]1C5 [Naloxone, naloxone hydrochloride dihydrate]
Respiratory depression (in words) [1]: no effects

CNC1(c2ccccc2Cl)CCCCC1=O (racemic) [ketamine, (±) Ketamine Hydrochloride]
Fatality [2]: No death was observed
GHB uptake compared with GHB alone ([5]; 15 s, 2 h pre-incubation with ketamine 5, 15 or 40 µM at 37 °C): significantly increased
GHB uptake compared with GHB alone ([5]; 15 s, ketamine 5, 15, 40 µM without pre-incubation): no significant change in GHB uptake
GHB uptake compared with GHB alone ([5]; 0.5, 2 and 4 h pre-incubation with 40 µM ketamine): significant increases in GHB uptake
GHB uptake in the presence of staurosporine [5]: no increase in GHB uptake
GHB uptake compared with GHB alone ([5]; longer pre-incubation times (8 and 24 h) with 40 µM ketamine): no significant changes
Ketamine plasma concentrations associated with fatalities [6]: 1.8 to 27.4 µg/mL
Effect of co-administration on GHB sleep time [7]: significant increase in sleep time
Respiratory depression (in words) [1]: did not result in any significant respiratory depression
Steady-state concentration of ketamine with GHB compared to ketamine alone ([8]; GHB 600 mg/kg i.v., ketamine 6 mg/kg bolus + 1 mg/kg/min for 60 min): no significant difference
Ketamine plasma concentration in the study [8]: ~ 7 µg/mL
Ketamine plasma concentration in the study ([8]; listed as Ketamine): 7 µg/mL

CN[C@@H]1C[C@H]2O[C@@](C)([C@@H]1OC)n1c3ccccc3c3c4c(c5c6ccccc6n2c5c31)C(=O)NC4 [staurosporine]
Effect on the increase in GHB uptake by PMA and ketamine ([5]; RBE4 cells, co-incubation during 2 h pre-incubation): significantly inhibited

CCCCCCCCCCCCCC(=O)O[C@@H]1[C@@H](C)[C@@]2(O)[C@@H](C=C(CO)C[C@]3(O)C(=O)C(C)=C[C@@H]23)[C@@H]2C(C)(C)[C@]12OC(C)=O [PMA, phorbol 12-myristate 13-acetate]
GHB uptake compared with GHB alone ([5]; 2 h pre-incubation with PMA 100 nM): significant increase in GHB uptake
GHB uptake in the presence of staurosporine [5]: no increase in GHB uptake
